Measured values: patent US11000506B2, “Envenomation therapies and related pharmaceutical compositions, systems and kits” (OPHIREX, INC, priority 2014, dated 2021)
Entries after “also recorded” stand apart in the source; their conditions may differ. Read-outs that look alike come from different tables or passages of the source.

Tests used:
[1] = system: snake venom metalloproteinase; assay: time course of metalloproteinase activity with excess venom (FIG. 2A); type: biochemical; conditions: inhibitors 100 uM; venom 0.444 mg/mL
Experimental: Substrate for MP was DQ Gelatin and assay run per EnzChek gelatinase assay manufacturers instructions. Venom MP activity was not optimized in initial experiments, but reaction rates were during experiments performed by an independently contracted laboratory. SP assay was performed using Nα-Benzoyl-L-arginine-7-amido-4-methylcoumarin hydrochloride. […] Unless otherwise specified, in the case of my experiments, only crude, unfractionated lyophilized venom purchased from Sigma or the Miami Serpentarium were used. Plate Setup: Manufacturers guidelines (paraphrased herein) were followed unless otherwise specified. Data Analysis: xcel per manufacturers recommendations. MP and SP assays were prepared and plated in the same manner as PLA2 assays except substrates and fluorophores were different. PBS was the buffer in the case of MP and SP assays and absorbance measured at 495 nm. Substrate for MP was DQ Gelatin and assay run per EnzChek gelatinase assay manufacturers instructions except that experiments were run, unconventionally at 37 C to estimate human body temperature and initial experiments for PLA2, MP activity and SP activity were not optimized for screening (e.g. extremely high doses of venom were used—10 mg/mL stock in all cases since the quality of the venom was unknown with final concentration of 0.444 mg/mL in the test wells). SP assay was performed using Na-Benzoyl-L-arginine-7-amido-4-methylcoumarin hydrochloride (Sigma). Specifics of contract laboratory technique vary from the present inventor's initial experiments in terms of venom and substrate optimization, plate size (384 instead of 96), volume and temperature and other factors including different operators such as those described immediately below, performed following the first pilot experiments and subsequently extended by a contract laboratory.
(§8) Screening was carried out for inhibitors of venom sPLA2, MP and SPs. Stock solutions of venom at 10 mg/mL were used without typical dilution for assaying various inhibitors of sPLA2, MP and SPs. The final venom concentration in the assays was very high at 0.444 mg/mL.

Vipera berus venom = assay: survival of mice given Vipera berus venom (FIG. 9); type: in vivo; conditions: for survival versus controls: N=7
Description: (§1) V. berus is the most widely distributed viper in the world, ranging across Europe and Eurasia and as far north as the Arctic circle. It elaborates both hemo- and neurotoxins dangerous especially to children, pets and large animals such as horses.

[2] = system: Acanthophis antarcticus venom PLA2; assay: venom sPLA2 inhibition IC50, varespladib and CroFab alone and together; type: biochemical
Experimental: (§2) Background. Phospholipase A2 (PLA2) catalyzes the hydrolysis of phospholipids at the sn-2 position yielding a free fatty acid and a lysophospholipid. The release of arachidonic acid from membrane phospholipids by PLA is believed to be a key step in the control of eicosanoid production within the cell. The Bee Venom PLA2 Control was a 100 μg/ml solution of bee venom PLA2 is supplied as a positive control in the kit (Abcam kit catalog number ab133089). Substrate for MP was DQ Gelatin and assay run per EnzChek gelatinase assay manufacturers instructions. Venom MP activity was not optimized in initial experiments, but reaction rates were during experiments performed by an independently contracted laboratory. SP assay was performed using Nα-Benzoyl-L-arginine-7-amido-4-methylcoumarin hydrochloride. These kits were stored as specified if stored at −20° C. Unless otherwise specified, in the case of my experiments, only crude, unfractionated lyophilized venom purchased from Sigma or the Miami Serpentarium were used. Plate Setup: Manufacturers guidelines (paraphrased herein) were followed unless otherwise specified. Data Analysis: xcel per manufacturers recommendations. MP and SP assays were prepared and plated in the same manner as PLA2 assays except substrates and fluorophores were different. PBS was the buffer in the case of MP and SP assays and absorbance measured at 495 nm. Substrate for MP was DQ Gelatin and assay run per EnzChek gelatinase assay manufacturers instructions except that experiments were run, unconventionally at 37 C to estimate human body temperature and initial experiments for PLA2, MP activity and SP activity were not optimized for screening (e.g. extremely high doses of venom were used—10 mg/mL stock in all cases since the quality of the venom was unknown with final concentration of 0.444 mg/mL in the test wells). SP assay was performed using Na-Benzoyl-L-arginine-7-amido-4-methylcoumarin hydrochloride (Sigma). Specifics of contract laboratory technique vary from the present inventor's initial experiments in terms of venom and substrate optimization, plate size (384 instead of 96), volume and temperature and other factors including different operators such as those described immediately below, performed following the first pilot experiments and subsequently extended by a contract laboratory.
(§3) Small molecule screening and dose-response experiments took place in the Yale Center for Molecular Discovery. Instrumentation used when indicated included Tecan EVO (2), Tecan Aquarius, Matrix PlateMatePlus (2), Matrix PlateMate2×2 liquid transfer robots and Titertek and Thermo Multidrop liquid dispensers (7). PerkinElmer EnVision (3) and Tecan infinite M1000 (2) plate readers sensitively measure absorbance, fluorescence, fluorescence polarization and luminescence in 96- and 384-well plate formats. A GE InCell Analyzer 2200 imaging system acquires multicolor fluorescent and transmitted light images from plates. Piloting collections used in the first phases of screening were selected by the inventor or from libraries of known compounds and natural products available at the time of experiments on selected venoms including: NCC, GenPlus, Pharmakon, Bioactive lipids, Protease Inhibitors, Procured Drugs and FDA Approved Drugs libraries. The GenPlus (the NINDS Custom Collection) from MicroSource Discovery Systems contains 960 compounds. This unique selection of known bioactive compounds permits the simultaneous evaluation of hundreds of marketed drugs and biochemical standards. The Pharmakon 1600 collection (MicroSource) includes known drugs used globally or studied in clinical trials.
(§4) Each assay was characterized in similar fashion, using methodology well-established in the Center. Assays are typically performed in 384-well microtiter plates.

[3] = system: Crotalus scutulatus scutulatus venom PLA2; assay: as above; type: biochemical
Experimental: as §2, §3, §4

[4] = system: Agkistrodon piscivorus venom PLA2; assay: as above; type: biochemical
Experimental: as §2, §3, §4

[5] = system: Agkistrodon contortrix venom PLA2; assay: as above; type: biochemical
Experimental: as §2, §3, §4

[6] = system: Crotalus adamanteus venom PLA2; assay: as above; type: biochemical
Experimental: as §2, §3, §4

C. scutulatus venom = assay: survival of mice coinjected with C. scutulatus venom (FIG. 7A); type: in vivo; conditions: coinjected SC with C. scutulatus venom, single dose; N=4
M. fulvius venom [7] = assay: protection of mice from M. fulvius venom (FIG. 6A-D); type: in vivo
Experimental: (§5) Mice received SC injections of M. fulvius venom at ^˜4 times the expected LD50 (typically estimated to be 1.3 mg/kg SC) (0.1 mg M. fulvius venom/animal for approximate dose of ^˜4 mg/kg). Prior to venom injection animals received either total dose 0.1 mg varespladib exipient (sham treatment) by SC route for calculated concentration of 4 mg/kg varespladib ^˜10-15 minutes before venom administration. Surviving animals were euthanized by CO2 inhalation at the end of experiments and observations periods ranging from ^˜12 hours to as long as 30 hours (survival being designated at 24 hours). […] In mice: Varespladib 4-8 mg/kg subcutaneously or orally with methylvarespladib, taken ad libitum. In rats, varespladib or excipient was administered intravenously at 30 seconds or 5 minutes following subcutaneous administration of venom at 4 or 8 mg/kg. Blood sampling and assay for sPLA2 activity was performed with samples taken from a surgically implanted jugular venous catheter at precise intervals (baseline, 30 minutes, 1 hour and 4 hours).
(§6) 6B Mice fed methylvarespladib or exipient ad libitum in biscuits had high-dose M. fulvius venom administered ^˜5 hours after introduction of the biscuits (N=2 each group). […] 6C Venom and varespladib (4 mg/kg) or venom and excipient were mixed just prior to administration and injected subcutaneously. At 5 hours (300 minutes, down-pointing arrow), surviving animals were retreated with ½ dose varespladib (2 mg/kg) or excipient. […] Mice either received venom and sham/excipient (N=7), methylvarespladib (N=3) or varespladib (N=7) ^˜30 seconds to 1.5 minute following venom administration. […] Confirmatory experiments and results of 6E-H were performed in rats by a contract laboratory to assess expand knowledge of varespladib's capacity to act in therapeutic mode and see if the effects of intravenous administration were similar to subcutaneous administration. 6E and 6F M. fulvius venom was administered subcutaneously (4 mg/kg or 8 mg/kg) and then excipient or varespladib 8 mg/kg was administered at 30 seconds or 5 minutes after envenomation.

[8] = system: snake venom serine proteases; assay: serine protease activity with excess venom (FIG. 3); type: biochemical; conditions: 100 um; venom 0.444 mg/mL; compared to marimastat and batimastat
Experimental: Substrate for MP was DQ Gelatin and assay run per EnzChek gelatinase assay manufacturers instructions. Venom MP activity was not optimized in initial experiments, but reaction rates were during experiments performed by an independently contracted laboratory. SP assay was performed using Nα-Benzoyl-L-arginine-7-amido-4-methylcoumarin hydrochloride. […] Unless otherwise specified, in the case of my experiments, only crude, unfractionated lyophilized venom purchased from Sigma or the Miami Serpentarium were used. Plate Setup: Manufacturers guidelines (paraphrased herein) were followed unless otherwise specified. Data Analysis: xcel per manufacturers recommendations. MP and SP assays were prepared and plated in the same manner as PLA2 assays except substrates and fluorophores were different. PBS was the buffer in the case of MP and SP assays and absorbance measured at 495 nm. Substrate for MP was DQ Gelatin and assay run per EnzChek gelatinase assay manufacturers instructions except that experiments were run, unconventionally at 37 C to estimate human body temperature and initial experiments for PLA2, MP activity and SP activity were not optimized for screening (e.g. extremely high doses of venom were used—10 mg/mL stock in all cases since the quality of the venom was unknown with final concentration of 0.444 mg/mL in the test wells). […]

bee venom PLA2 = bee venom PLA2 (Apis mellifera, UniProt P00630); type: biochemical
[9] = varespladib alone, no venom; N=2
Description: as §1

snake venom PLA2 [10] = assay: time course of PLA2 activity with excess venom (FIG. 1); type: biochemical; conditions: inhibitor 100 uM; venom 0.444 mg/mL final; 37 C
Description: Plate Setup: Manufacturers guidelines (paraphrased herein) were followed unless otherwise specified. Data Analysis: xcel per manufacturers recommendations. […] Substrate for MP was DQ Gelatin and assay run per EnzChek gelatinase assay manufacturers instructions except that experiments were run, unconventionally at 37 C to estimate human body temperature and initial experiments for PLA2, MP activity and SP activity were not optimized for screening (e.g. extremely high doses of venom were used—10 mg/mL stock in all cases since the quality of the venom was unknown with final concentration of 0.444 mg/mL in the test wells).
as §8

D. russelli venom = assay: survival of mice given Daboia russelli venom (FIG. 8); type: in vivo; conditions: varespladib 4 mg/kg SC 60 to 90 minutes before lethal dose of D. russelli venom; N=3
M. fulvius venom [11] = assay: treatment of rats after M. fulvius venom (FIG. 6E-H); type: in vivo; conditions: varespladib IV
Experimental: as §5, §6

Daboia russelli venom MP = assay: metalloproteinase activity over time, Daboia russelli venom (FIG. 2B); type: biochemical; conditions: 100 uM; venom 0.444 mg/mL
Experimental: Substrate for MP was DQ Gelatin and assay run per EnzChek gelatinase assay manufacturers instructions. Venom MP activity was not optimized in initial experiments, but reaction rates were during experiments performed by an independently contracted laboratory. […] These kits were stored as specified if stored at −20° C. Unless otherwise specified, in the case of my experiments, only crude, unfractionated lyophilized venom purchased from Sigma or the Miami Serpentarium were used. Plate Setup: Manufacturers guidelines (paraphrased herein) were followed unless otherwise specified. Data Analysis: xcel per manufacturers recommendations. MP and SP assays were prepared and plated in the same manner as PLA2 assays except substrates and fluorophores were different. PBS was the buffer in the case of MP and SP assays and absorbance measured at 495 nm. Substrate for MP was DQ Gelatin and assay run per EnzChek gelatinase assay manufacturers instructions except that experiments were run, unconventionally at 37 C to estimate human body temperature and initial experiments for PLA2, MP activity and SP activity were not optimized for screening (e.g. extremely high doses of venom were used—10 mg/mL stock in all cases since the quality of the venom was unknown with final concentration of 0.444 mg/mL in the test wells). […]

[12] = system: Crotalus otrox venom PLA2; assay: venom sPLA2 inhibition IC50, varespladib and CroFab alone and together; type: biochemical, Crotalus atrox
Experimental: Background. Phospholipase A2 (PLA2) catalyzes the hydrolysis of phospholipids at the sn-2 position yielding a free fatty acid and a lysophospholipid. The release of arachidonic acid from membrane phospholipids by PLA is believed to be a key step in the control of eicosanoid production within the cell. The Bee Venom PLA2 Control was a 100 μg/ml solution of bee venom PLA2 is supplied as a positive control in the kit (Abcam kit catalog number ab133089). Substrate for MP was DQ Gelatin and assay run per EnzChek gelatinase assay manufacturers instructions. Venom MP activity was not optimized in initial experiments, but reaction rates were during experiments performed by an independently contracted laboratory. SP assay was performed using Nα-Benzoyl-L-arginine-7-amido-4-methylcoumarin hydrochloride. These kits were stored as specified if stored at −20° C. Unless otherwise specified, in the case of my experiments, only crude, unfractionated lyophilized venom purchased from Sigma or the Miami Serpentarium were used. […] PBS was the buffer in the case of MP and SP assays and absorbance measured at 495 nm. […]
(§7) Small molecule screening and dose-response experiments took place in the Yale Center for Molecular Discovery. […] PerkinElmer EnVision (3) and Tecan infinite M1000 (2) plate readers sensitively measure absorbance, fluorescence, fluorescence polarization and luminescence in 96- and 384-well plate formats. […]

snake venom PLA2 [13] = type: biochemical
Experimental: Background. Phospholipase A2 (PLA2) catalyzes the hydrolysis of phospholipids at the sn-2 position yielding a free fatty acid and a lysophospholipid. The release of arachidonic acid from membrane phospholipids by PLA is believed to be a key step in the control of eicosanoid production within the cell. The Bee Venom PLA2 Control was a 100 μg/ml solution of bee venom PLA2 is supplied as a positive control in the kit (Abcam kit catalog number ab133089). Substrate for MP was DQ Gelatin and assay run per EnzChek gelatinase assay manufacturers instructions. Venom MP activity was not optimized in initial experiments, but reaction rates were during experiments performed by an independently contracted laboratory. SP assay was performed using Nα-Benzoyl-L-arginine-7-amido-4-methylcoumarin hydrochloride. These kits were stored as specified if stored at −20° C. Unless otherwise specified, in the case of my experiments, only crude, unfractionated lyophilized venom purchased from Sigma or the Miami Serpentarium were used. Plate Setup: Manufacturers guidelines (paraphrased herein) were followed unless otherwise specified. Data Analysis: xcel per manufacturers recommendations. MP and SP assays were prepared and plated in the same manner as PLA2 assays except substrates and fluorophores were different. PBS was the buffer in the case of MP and SP assays and absorbance measured at 495 nm. […]
as §7

C. atrox venom MP = assay: HTS for inhibitors of C. Atrox venom MP; type: biochemical; conditions: compounds approximately 10 μM/well
Experimental: as §2
as §3, with “This unique selection of known bioactive compounds permits the simultaneous evaluation of hundreds of marketed drugs and biochemical standards. The Pharmakon 1600 collection (MicroSource) includes known drugs used globally or studied in clinical trials.” left out

E. carinatus venom MP = assay: HTS for inhibitors of E. carinatus venom MP; type: biochemical; conditions: compounds approximately 10 μM/well
Experimental: as §2
as §3, with “This unique selection of known bioactive compounds permits the simultaneous evaluation of hundreds of marketed drugs and biochemical standards. The Pharmakon 1600 collection (MicroSource) includes known drugs used globally or studied in clinical trials.” left out

[14] = varespladib alone, read-out: Varespladib (IC50 nM)
[15] = varespladib and CroFab ® together, read-out: Varespladib IC50 (nM) With CroFab ®

bee venom PLA2, sequence (P00630 34-167 limits assumed): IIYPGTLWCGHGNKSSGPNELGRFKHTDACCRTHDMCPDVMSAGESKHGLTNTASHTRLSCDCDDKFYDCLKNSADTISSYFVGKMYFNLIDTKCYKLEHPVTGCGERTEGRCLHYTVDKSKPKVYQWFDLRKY

## CCc1c(C(=O)C(N)=O)c2c(OCC(=O)O)cccc2n1Cc1ccccc1 [Varespladib]
[1]
  inhibition of metalloproteinase activity (time course): showed inhibition of MP activity in several snake venoms
Vipera berus venom; Venom SC followed by Varespladib SC 8 mg/kg
  animals that outlived controls: 4 of 5
Vipera berus venom; lethal venom dose just prior to SC varespladib
  survival versus controls: outlived controls
Vipera berus venom; varespladib IV 8 mg/kg lateral tail vein following venom
  animals surviving 24 hours: 5 of 5
Vipera berus venom; venom and varespladib injected simultaneously SC
  survival versus controls: outlived controls
[2]; [14]
  IC50: 0.74 nM
[2]; [15]
  IC50: 0.43 nM
[3]; [14]
  IC50: 1.51 nM
[3]; [15]
  IC50: 0.82 nM
[4]; [14]
  IC50: 0.28 nM
[4]; [15]
  IC50: 0.05 nM
[5]; [14]
  IC50: 0.22 nM
[5]; [15]
  IC50: 0.045 nM
[6]; [14]
  IC50: 0.25 nM
[6]; [15]
  IC50: 0.05 nM
C. scutulatus venom
  survival versus venom only controls: outlived controls
M. fulvius venom [7]; varespladib 4 mg/kg SC minutes before M. fulvius venom 4 mg/kg SC
  mice that died within 8 hours: 0 of 5
M. fulvius venom [7]; {}
  mice survived to the endpoint of 24 hours: 5/5
[8]
  inhibitory effects on snake venom serine proteases: unexpected inhibitory effects
Bee venom PLA2
  inhibition of bee venom PLA2: not inhibited; also recorded: only a modest effect
[9]
  signs of toxicity: no signs of toxicity
Snake venom PLA2 [10]
  inhibition of snake venom PLA2 activity (time course): inhibited PLA2 activity in all snake venoms tested
D. russelli venom
  survival at 24 hours: all survived 24 hours
  survival versus controls: outlived controls
M. fulvius venom [11]; high dose coral snake venom SC, baseline, 30 minutes, 1 hour, 4 hours
  sPLA2 activity in blood samples: dramatic suppression of sPLA2 activity
M. fulvius venom [11]; venom SC
  gross hemolysis in serum samples: no or minimally visible hemolysis
  pulmonary hemorrhage at necropsy: either no or minimal pulmonary hemorrhage
Daboia russelli venom MP
  inhibition of Daboia russelli venom MP over time: comparable inhibition
[12]; [14]
  IC50: 0.32 nM
[12]; [15]
  IC50: 0.07 nM
Snake venom PLA2 [13]
  inhibition of snake venom PLA2 in vitro: inhibited snake venom PLA2; also recorded: inhibited the measured sPLA2 activity of several medically important snake venoms
Snake venom PLA2 [13]; read-out: IC50s specific for snake venoms, lowest value
  IC50: ≥ 0.05 nM

## O=C(CCCCCCC(=O)Nc1ccccc1)NO [Vorinostat]
C. atrox venom MP
  percental (%) reduction of MP activity: 42%

## CCCCN1CCCCC1C(=O)Nc1c(C)cccc1C (centres unmarked) [bupvicaine]
E. carinatus venom MP
  % Effect on E. carinatus venom MP: > 10%

## CCN(CC)CCN(Cc1ccc(-c2ccc(C(F)(F)F)cc2)cc1)C(=O)Cn1c(SCc2ccc(F)cc2)nc(=O)c2c1CCC2 [darapladib]
Bee venom PLA2
  inhibition of bee venom PLA2: not inhibited
